Results published in US9381186B2, “Substituted chroman derivatives, medicaments and use in therapy” (MEI Pharma, Inc., priority 2004, dated 2016).
≈ marks a conversion by molar mass, not a printed value. Read-outs that look alike come from different tables or passages of the source.

Tests used:
[1] = test system: cancer cell lines; test: Proliferation assays, panel of cancer cell lines; type: cell-based; details: CP70, PC3, MDA-MB-468, HTB-138 and lung cancer cell lines
[2] = test system: HTB-138; test: MTT proliferation assay, glioma HTB-138; type: cell-based
Procedure: (§1) An cultures were supplemented with 10% FCS (CSL, Australia), penicillin (100 U/ml), streptomycin ([…]), L-glutamine (2 mM) and sodium bicarbonate (1.2 g/L), and cultured at 37° C. in a humidified atmosphere of 5% CO2. All cell lines were purchased from ATCC (Maryland, USA) except where noted.
(§2) IC50 values were determined for each cell line. Cells were seeded in 96-well plates at an appropriate cell density as determined from growth kinetics analysis and cultured for 5 days in the absence and presence of the test compounds. Cell proliferation was assessed after the addition of 20 μl of 3-4,5 dimethylthiazol-2,5-diphenyl tetrazolium bromide (MTT, 2.5 mg/ml in PBS, Sigma) for 3-4 hrs at 37° C. according to manufacturer's instructions. IC50 values were calculated from semi-log plots of % of control proliferation on the y-axis against log dose on the x-axis.

[3] = test system: NCI-H460; test: MTT proliferation assay, NSC lung NCI-H460; type: cell-based; details: Homo sapiens; NSC Lung NCI-H460, Table 2.2
Procedure: as §1, §2

[4] = test system: RK (rabbit kidney) cells; test: Cytotoxicity (MTT proliferation assay) against rabbit kidney cells; type: cell-based
Procedure: (§3) The normal cell line NFF (neonatal foreskin fibroblasts) was a gift from Dr. Peter Parsons (Queensland Institute of Medical Research). RK (rabbit kidney) cells were obtained from Miller Whalley (Macquarie University). Both cell lines were cultured in RPMI supplemented with 10% FCS (CSL, Australia), penicillin (100 U/ml), streptomycin ([…]), L-glutamine (2 mM) and sodium bicarbonate (1.2 g/L), and cultured at 37° C. in a humidified atmosphere of 5% CO2
as §2

[5] = test system: NFF (neonatal foreskin fibroblasts); test: Cytotoxicity (MTT proliferation assay) against neonatal foreskin fibroblasts; type: cell-based, Human; details: Homo sapiens, Fibroblast
Procedure: as §3, §2

[6] = test system: HPAC; test: MTT proliferation assay, pancreatic HPAC; type: cell-based; details: Homo sapiens, Table 2.2
[7] = test system: murine macrophages (RAW 264.7) stimulated with LPS; test: Eicosanoid synthesis in LPS-stimulated RAW 264.7 macrophages; type: cell-based, mouse; details: test compound 10 μM, LPS 50 ng/ml, 16 hrs; negative = inhibition
Procedure: The mouse macrophage cell line RAW 264.7 was cultured in DMEM supplemented with foetal calf serum (FCS), 2 mM glutamine and 50 U/ml penicillin/streptomycin. Subconfluent cells were detached from the flask by gentle scraping and 24-well plates seeded at 5×10^5 cells per well and allowed to adhere for 1 hr. Cells were then treated either test compound at a concentration of 10 μM (in 0.025% DMSO) or vehicle alone, and incubated for 1 hr. LPS 50 ng/ml (LPS—Sigma-Aldrich) was then added. After incubation for 16 hrs, culture media was collected and stored at −80° C. for ecosanoid measurements using enzyme immunometric assays (PGE2 and TXB2—Cayman Chemical).

[8] = test system: HT-29; test: MTT proliferation assay, colorectal HT-29; type: cell-based; details: for IC50: Homo sapiens
Procedure: as §1, §2

[9] = Preliminary formulation study, solubility in 20% HPBCD; type: physicochemical; details: aqueous with cosolvent or surfactant or cyclodextrin, preliminary formulation studies
[10] = test system: CCRF-CEM; test: MTT proliferation assay, leukaemia (ALL) CCRF-CEM; type: cell-based; details: Homo sapiens, Table 2.2
Procedure: as §1, §2

[11] = test system: CP70; test: MTT proliferation assay, ovarian CP70; type: cell-based
[12] = test system: MDA-MB-468; test: MTT proliferation assay, breast MDA-MB-468; type: cell-based; details: Homo sapiens
[13] = test system: NCI-H23; test: MTT proliferation assay, lung NCI-H23; type: cell-based; details: Homo sapiens; Lung NCI-H23, Table 2.1; read-out: cytoxicity (IC50)
Procedure: as §1, §2

[14] = Oral pharmacokinetics in female BALB/c mice; type: in vivo, mouse
Procedure: Compound No. 1 labelled above was prepared as homogenous suspensions in 1% CMC (m:v, water). The formulation was delivered orally by gavage to female BALB/c mice at a dosage of 50 mg/kg. Three animals were allocated to each timepoint (15 min, 30 min, 1 hr, 4 hr and 24 hr). At each respective timepoint, animals were euthanised by cervical dislocation and blood collected. The concentration of free compound was analysed by mass spectroscopy.

[15] = test system: PC3; test: MTT proliferation assay, prostate PC3; type: cell-based; details: Homo sapiens, PC-3
Procedure: as §1, §2

[16] = test system: MM200; test: MTT proliferation assay, melanoma MM200; type: cell-based

- activity relative to phenoxodiol (IC50 comparison) [1]: 2-10 fold
- IC50 ([2]; Glioma HTB-138, Table 2.2, read-out: IC50): 1.16 µM
- IC50 [3]: 1.2 ± 0.45 µM
- IC50 ([8]; Colorectal HT-29, Table 2.2, read-out: IC50): 15.7 ± 2.4 µM
- solubility [9]: 11.2 mg/mL (≈ 30.9 mM)
- IC50 [10]: 1.6 ± 1.2 µM
- IC50 ([12]; Breast MDA-MB-468, Table 2.2, read-out: IC50): 1 ± 0.6 µM
- concentration at 1 h ([14]; female, BALB/c, mouse, faeces, po, 50 mg/kg, oral 50 mg/kg, Time 1 (head prints days), read-out: Faeces Free): 1060 ± 913 µM
- concentration at 4 h ([14]; female, BALB/c, mouse, faeces, po, 50 mg/kg, oral 50 mg/kg, Time 4 (head prints days), read-out: Faeces Free): 1790 ± 625 µM
- concentration at 24 h ([14]; female, BALB/c, mouse, faeces, po, 50 mg/kg, oral 50 mg/kg, Time 24 (head prints days), read-out: Faeces Free): 800 ± 670 µM
- half-life ([14]; female, BALB/c, mouse, serum, 50 mg/kg, oral, sera, read-out: half life): ~30 min
- concentration at 0.25 h ([14]; female, BALB/c, mouse, serum, po, 50 mg/kg, oral 50 mg/kg, Time 0.25 (head prints days), read-out: Serum Free): 27.3 ± 23 µM
- concentration at 0.5 h ([14]; female, BALB/c, mouse, serum, po, 50 mg/kg, oral 50 mg/kg, Time 0.5 (head prints days), read-out: Serum Free): 8.2 ± 6.5 µM
- concentration at 1 h ([14]; female, BALB/c, mouse, serum, po, 50 mg/kg, oral 50 mg/kg, Time 1 (head prints days), read-out: Serum Free): 2.4 ± 1.6 µM
- concentration at 4 h ([14]; female, BALB/c, mouse, serum, po, 50 mg/kg, oral 50 mg/kg, Time 4 (head prints days), read-out: Serum Free): 0.3 ± 0.02 µM
- concentration at 24 h ([14]; female, BALB/c, mouse, serum, po, 50 mg/kg, oral 50 mg/kg, Time 24 (head prints days), read-out: Serum Free): 0.05 ± 0.02 µM
- concentration at 0.25 h ([14]; female, BALB/c, mouse, serum, po, 50 mg/kg, oral, Time 0.25, Table 4, read-out: Free concentration, comparative oral pharmacokinetic data): 27.3 ± 23 µM
- concentration at 0.5 h ([14]; female, BALB/c, mouse, serum, po, 50 mg/kg, oral, Time 0.5, Table 4, read-out: Free concentration, comparative oral pharmacokinetic data): 8.2 ± 6.5 µM
- concentration at 1 h ([14]; female, BALB/c, mouse, serum, po, 50 mg/kg, oral, Time 1, Table 4, read-out: Free concentration, comparative oral pharmacokinetic data): 2.4 ± 1.6 µM
- concentration at 4 h ([14]; female, BALB/c, mouse, serum, po, 50 mg/kg, oral, Time 4, Table 4, read-out: Free concentration, comparative oral pharmacokinetic data): 0.33 ± 0.02 µM
- concentration at 24 h ([14]; female, BALB/c, mouse, serum, po, 50 mg/kg, oral, Time 24, Table 4, read-out: Free concentration, comparative oral pharmacokinetic data): 0.05 ± 0.02 µM
- concentration at 30 min ([14]; female, BALB/c, mouse, serum, po, 50 mg/kg, oral, after 30 min, read-out: free concentration in sera): 8.2 µM
- concentration at 1 hr ([14]; female, BALB/c, mouse, serum, po, 50 mg/kg, oral, after 1 hr, read-out: free concentration in sera): 2.4 µM
- concentration at 0.25 h ([14]; female, BALB/c, mouse, urine, po, 50 mg/kg, oral 50 mg/kg, Time 0.25 (head prints days), read-out: Urine Free): 17.1 ± 7.2 µM
- concentration at 0.5 h ([14]; female, BALB/c, mouse, urine, po, 50 mg/kg, oral 50 mg/kg, Time 0.5 (head prints days), read-out: Urine Free): 22.1 ± 1.5 µM
- concentration at 1 h ([14]; female, BALB/c, mouse, urine, po, 50 mg/kg, oral 50 mg/kg, Time 1 (head prints days), read-out: Urine Free): 26.3 ± 2.2 µM
- concentration at 4 h ([14]; female, BALB/c, mouse, urine, po, 50 mg/kg, oral 50 mg/kg, Time 4 (head prints days), read-out: Urine Free): 1.1 ± 0.1 µM
- concentration at 24 h ([14]; female, BALB/c, mouse, urine, po, 50 mg/kg, oral 50 mg/kg, Time 24 (head prints days), read-out: Urine Free): 0.1 ± 0.1 µM
- share of compound recovered from faeces present in free form ([14]; oral): ~100%
- Cmax of free compound in sera ([14]; oral, 15 minutes post administration): 27.3 µM
- free concentration relative to phenoxodiol ([14]; oral, after 15 and 30 min): 10-20 fold
- concentration relative to phenoxodiol ([14]; oral, after 1 hr): Approximately 2 fold
- share present as the free entity in urine ([14]; oral, at any time-point): ≤ 2%
- IC50 ([15]; Prostate PC3, Table 2.2, read-out: IC50): 1.6 ± 0.8 µM
- IC50 ([16]; Melanoma MM200, Table 2.2, read-out: IC50): 0.78 ± 0.23 µM
Structure (SMILES): COc1ccc(C2c3ccc(O)c(C)c3OCC2c2ccc(O)cc2)cc1 (stereo not shown) [Compound 1, 3-(4-hydroxyphenyl)-4-(4-methoxyphenyl)-8-methyl-3,4-dihydro-2H-chromen-7-ol]
- IC50 ([2]; Glioma HTB-138, Table 2.1, read-out: cytoxicity (IC50)): 1.1 µM
- IC50 ([4]; Oryctolagus cuniculus, rabbit kidney cells): > 60 µM
- IC50 ([4]; Rabbit Kidney cells): > 60 µM
- IC50 ([5]; Neonatal Foreskin Fibroblasts (Human, NFF), read-out: IC50): ~2 µM
- IC50 ([5]; non-transformed neonatal foreskin fibroblasts, read-out: IC50): 2 µM
- IC50 ([5]; text says rabbit kidney cells, values are those of the NFF line of Table 1, read-out: degree of toxicity (IC50)): 2 µM
- IC50 [6]: 51.7 ± 8 µM
- Percentage change in PGE2 synthesis compared with vehicle [7]: −53.8%
- Percentage change in TXB2 synthesis compared with vehicle [7]: −15.9%
- IC50 ([8]; Colorectal HT-29, Table 2.1, read-out: cytoxicity (IC50)): 17.4 µM
- activity in words ([8]; colorectal cell line HT-29): moderately active
- IC50 ([11]; Ovarian CCP70, Table 2.1, read-out: cytoxicity (IC50)): 1.7 µM
- IC50 ([11]; Ovarian CP70, Table 2.2, read-out: IC50): 1.9 ± 0.4 µM
- IC50 ([12]; Breast MDA-MB-468, Table 2.1, read-out: cytoxicity (IC50)): 0.6 ± 0.01 µM
- IC50 [13]: 1.9 ± 0.1 µM
- IC50 ([15]; Prostate PC3, Table 2.1, read-out: cytoxicity (IC50)): 1.7 ± 0.5 µM
- IC50 ([16]; Melanoma MM200, Table 2.1, read-out: cytoxicity (IC50)): 1 ± 0.01 µM
